# From US9326927B2, “Use of cannabinoid compounds for stimulating melanogenesis” (L'OREAL, priority 2011, dated 2016)
# Key:
# [1] = system: Normal human epidermal melanocytes (NHEMs); assay: Determination of the melanin content of the melanocytes (Example 1); format: cell-based; design: key to amount of melanin in NHEM cells, mean: fold of untreated control melanin amount (control = 1); settings: for effect on amount of melanin in the melanocytes (NHEMs), in words: 1 μM, by means of the CB1 receptor; for effect of receptor antagonist on the propigmenting effect of mAEA, in words: antagonist in combination with mAEA 1 μM (SR1 0.1 μM)
# Procedure: Normal human epidermal melanocytes (NHEMs) isolated from foreskins and supplied by Promocell (Heidelberg, Germany) are cultured for 24 h at 37° C. in a humid atmosphere at 5% CO2 in an appropriate culture medium M2 (Promocell).
# The AEA and the other compounds are added directly to the culture medium. Twenty-four hours after each treatment, the cell viability was measured using Trypan blue exclusion dye (Maccarone et al., 2003).
# The mAEA, the AEA and the ACEA are tested in vitro at a concentration of 1 μM and compared. The mAEA is also used at this concentration when it is used in combination with SR1 at 0.1 μM.
# Moreover, the mAEA was also tested, alone, at concentrations of 0.5, 1.0, 1.5, 2.0, 2.5 and 3.0 μM.
# The amount of melanin present in the NHEM cells is measured according to a method known to those skilled in the art (Xiao et al., Arch Dermatol Res 2007; 299: 245-57). According to this method, the NHEM cells are treated with trypsin and washed twice with a phosphate buffered saline. The samples are then resuspended in 200 μl of MilliQ water, and 1 ml of an ethanol: ether mixture (1:1, vol/vol) is added in order to remove the opaque substances other than melanin. After 15 minutes, the samples are centrifuged at 600 g for 5 minutes. The pellet is air-dried and dissolved in 200 μl of 1 N sodium hydroxide. The samples are then heated at 80° C. for one hour and cooled.
# The amount of melanin is determined by spectrophotometry at 450 nm using the standard melanin controls supplied by Sigma Chemical Co., so as to verify the linearity range of the test. The amount of melanin is expressed relative to the control.
# The results given are the means, with their standard deviations, of 3 independent tests, each carried out in triplicate. They were compared by analysis of variance (ANOVA).
# [2] = system: NHEKs+NHEMs coculture; assay: Melanin production in NHEM-NHEK coculture (Example 4); format: cell-based, human; settings: 72 h
# Procedure: (§1) Primary human melanocytes (NHEMs) were seeded into 24-well plates in the presence (coculture) of normal human epidermal keratinocytes (NHEKs) and then cultured for 24 h. The cells were then treated with nothing (negative control), IBMX (positive control, 200 μM), or methanandamide (mAEA, 1 μM).
# (§2) After treatment, the cells were incubated for 72 h, all the experimental conditions having been carried out in triplicate.
# (§3) After 72 h of incubation, the cells were lysed with a 0.5 N NaOH solution in order to extract the melanin.
# (§4) Quantification of the pigmentation by microscopic quantification of the melanin is then carried out and makes it possible to illustrate a propigmenting activity of the test compound.
# (§5) The optical density of the samples was measured at 405 nm, with reference to an exogenous melanin range (standard melanin curve 0.39 to 100 μg/ml).
# [3] = system: Primary human melanocytes (NHEMs); assay: Melanin production in NHEMs (Example 4); format: cell-based; settings: 1 μM, 72 h
# Procedure: as §1, §2, §3, §4, §5
# [4] = system: pigmented reconstructed epidermises (normal human melanocytes and keratinocytes); assay: Propigmenting effect on pigmented reconstructed epidermises (PREs), melanin quantified by image analysis (Example 3); format: cell-based
# Procedure: Pigmented epidermises are reconstructed on a collagen support (BPER [biodressing for reconstructed epidermis]) using normal human melanocytes and keratinocytes.
# The epidermises are obtained after 8 days of reconstruction; the melanocytes chosen are of estimated phototype IV.1.
# Some epidermises are treated daily with the placebo, others with the test product mAEA at different concentrations (1 μM and 3 μM).
# Each experimental condition is performed in quadruplicate.
# The histological quality of the epidermises after treatment is evaluated on histological sections after HES staining in order to determine the impact of the treatment on the epidermises. Also, the physiology of the melanocytes is studied in order to detect any melano-cytotoxicity. If no histological modification nor any melanotoxic effect of the product evaluated is noted, the pigmentation is quantified by quantifying the melanin on histological sections by image analysis.
# as §4
# The melanin present in the epidermis is stained on histological sections (Fontana Masson staining) and then quantified by image analysis. For this, each epidermis is photographed over its entire width using a microscope. Approximately 10 images are acquired per epidermis (white light, ×20 magnification).
# The area taken up by melanin is quantified using custom-designed image analysis software. Briefly, each image is segmented into 4 zones according to their color (lumen, stratum corneum, live epidermis and BPER). […] The pixels occupied by the melanin in the whole epidermis or the live layers are then quantified.
# This quantification takes into account the area taken up by the melanin and also the average localization of the melanin in the epidermis.
# The results below are expressed as percentage relative stimulation with respect to the control cultured in standard coculture medium.
# [5] = expressed relative to the control, compound alone at 1 μM, mean of 3 independent tests
compound,measurement,setting,value
"CCCCC/C=C\C/C=C\C/C=C\C/C=C\CCCC(=O)NCCCl [ACEA, Arachidonyl-2′-chloroethylamide]","effect on amount of melanin in the melanocytes (NHEMs), in words",[1],significantly increase the amount of melanin
same,"amount of melanin in NHEM cells, mean",[1]; [5],2.14
"CCCCC/C=C\C/C=C\C/C=C\C/C=C\CCCC(=O)NCCO [Anandamide, N-arachidonoylethanolamine]","effect on amount of melanin in the melanocytes (NHEMs), in words",[1],significantly increase the amount of melanin
same,"amount of melanin in NHEM cells, mean",[1]; [5],2.09
"Cc1c(C(=O)NN2CCCCC2)nn(-c2ccc(Cl)cc2Cl)c1-c1ccc(Cl)cc1 [SR1, N-piperidino-5-(4-chlorophenyl)-1-(2,4-dichlorophenyl)-4-methyl-3-pyrazole carboxamide, reference compound]","effect of receptor antagonist on the propigmenting effect of mAEA, in words",[1],prevents mAEA from having its propigmenting effect
"CCCCC/C=C\C/C=C\C/C=C\C/C=C\CCCC(=O)NC(C)CO (stereo not drawn) [mAEA, R(+)-arachidonyl-1′-hydroxy-2′-propylamide]","melanin production in NHEK+NHEM cells, in words",[2]; 1 μM,increase in melanin production
same,"melanin production in NHEKs+NHEMs compared with NHEMs alone and IBMX positive control, in words",[2]; mAEA 1 μM vs IBMX 200 μM,"greater than in NHEMs alone, even exceeding that of the IBMX positive control"
same,"melanin production in NHEM cells, in words",[3],increase in melanin production
same,"melanin, percentage relative stimulation with respect to the control",[4]; 1 μM SYST D17,315%
same,"melanin production in pigmented reconstructed epidermises, in words","[4]; 1 μM and 3 μM, daily treatment",very large increase in melanin production
same,"melanin, percentage relative stimulation with respect to the control","[4]; second line, printed 1 μM SYST D17",356.25%
same,"effect on amount of melanin in the melanocytes (NHEMs), in words",[1],significantly increase the amount of melanin
same,"dose/effect relationship of melanin production in NHEM cells, in words",[1]; 0.5 to 3.0 μM,dose-dependent increase in melanin production
same,"amount of melanin in NHEM cells, mean",[1]; [5],2.80
same,"amount of melanin in NHEM cells, mean","[1]; relative to the control, mAEA 1 μM in combination with SR1 0.1 μM",1.22
same,"amount of melanin in NHEM cells, mean","[1]; relative to the control, mAEA alone 0.5 μM",1.75
same,"amount of melanin in NHEM cells, mean","[1]; relative to the control, mAEA alone 1.5 μM",3.30
same,"amount of melanin in NHEM cells, mean","[1]; relative to the control, mAEA alone 2 μM",3.34
same,"amount of melanin in NHEM cells, mean","[1]; relative to the control, mAEA alone 2.5 μM",3.75
same,"amount of melanin in NHEM cells, mean","[1]; relative to the control, mAEA alone 3 μM",4.13
same,"amount of melanin in NHEM cells, mean","[1]; relative to the control, mAEA in combination with SR2",2.34
"N-[(1S)-endo-1,3,3-trimethy-1-bicyclo[2.2.1]heptan-2-yl]-5-(4-choro-3-methylphenyl)-1-(4-methylbenzyl)pyrazole-3-carboxamide [SR2, reference compound]","effect of receptor antagonist on the propigmenting effect of mAEA, in words",[1],"does not, on the other hand, prevent mAEA from having this effect"
